On to `c1csc(-c2cccs2)c1`, for which the logP (commonly a log measure of how a compound divides between an organic and an aqueous phase) turned out to be 3.75.
In turn, `c1cc(-c2ccncc2)ccn1` showed a logP of 1.28.
As for `c1ccc(-c2cccc(-c3ccccn3)n2)nc1`, the figure is 1.96; as for `c1ccc2c(c1)cc1ccc3cccc4c5ccccc5c2c1c34`, 7.71.
Compound `c1ccc2c(c1)ccc1c2ccc2ccc3ccccc3c21` came in with a logP of 7.11.
For `c1ccc2cc3c(cc2c1)sc1ccccc13`, the logP stood at 5.34.
The result for `c1cc2ccc3cc4cccc5ccc6cc(c1)c2c3c6c54` reads 7.04.
`c1ccc2cc3c(cc2c1)oc1ccccc13`: the logP stood at 5.05.
The result for `c1ccc2c(c1)Cc1ccccc1O2` reads 4.23; that for `c1ccc2cc3c(ccc4c5ccccc5ccc34)cc2c1`, 7.11; that for `c1cc2ccc3ccc4ccc5ccc6ccc1c1c2c3c4c5c61`, 7.64.
The result for `c1ccc(-c2c3ccccc3c(-c3ccccc3)c3ccccc23)cc1` reads 8.46; that for `c1ccc2cc3cc4cc5ccccc5cc4cc3cc2c1`, 7.11; that for `c1ccc(-c2ccccn2)nc1`, 1.5.
As for `c1ccc2c(c1)c1cccc3ccc4cccc2c4c31`, the figure is 6.44; as for `c1ccc2c(c1)Sc1ccccc1S2`, 4.47; as for `c1ccc2c(c1)ccc1c2ccc2c3ccccc3ccc21`, 7.11.
`c1ccc2c(c1)c1ccccc1c1c3ccccc3c3ccccc3c21` had a logP of 8.39.

For the origin of these results see the OPERA property sets (Mansouri et al. 2018).
